Results taken from US11986471B2, “Compounds and methods of use” (Tango Therapeutics, Inc., priority 2018, dated 2024).

Tests used:
[1] = target: T1, PRMT5 (Homo sapiens, UniProt O14744); experiment: PRMT5 IC50 assay in the presence of SAM as cofactor; type: biochemical
T1 construct: purchased Viva (custom protein)
Procedure, shortened: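 IC50 against PRMT5 determined with SAM as cofactor, with no cofactor, and with MTA as cofactor. Ki derived as IC50/1.5 for the SAM assay and IC50/13.5 for the MTA assay; SAM Ki to MTA Ki ratio also reported.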

[2] = system: HAP1 MTAP-intact; experiment: SDMA in-cell western assay, HAP1 MTAP-intact cell line; type: cell-based; settings: Homo sapiens
Procedure, shortened: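 Symmetric dimethylarginine (SDMA) levels were measured by in-cell western in an isogenic HAP1 pair, one expressing endogenous MTAP and one MTAP-null, and IC50 values were derived for each line. Compounds whose IC50 ratio between the lines is 3-fold or more are classed as MTAP-selective.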

[3] = target: T1, PRMT5; experiment: PRMT5 IC50 assay with no cofactor; type: biochemical
Procedure, shortened: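 Values reflect IC50 (μM) on human PRMT5 under three cofactor states. Selectivity is derived as the quotient of SAM-state Ki over MTA-state Ki, with each Ki obtained from its IC50.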

[4] = target: T1, PRMT5; experiment: PRMT5 IC50 assay in the presence of MTA as cofactor; type: biochemical; settings: for IC50: PRMT5, MTA as cofactor
Procedure, shortened: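 Ki conversion: SAM arm, Ki=IC50/1.5; MTA arm, Ki=IC50/13.5. No-cofactor arm reported as IC50 only. Selectivity expressed as Ki(SAM)/Ki(MTA).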

[5] = system: HAP1 MTAP-deleted; experiment: SDMA in-cell western assay, HAP1 MTAP-deleted cell line; type: cell-based; settings: for IC50: Homo sapiens, HAP1 MTAP-deleted cell line; for MTAP Intact/Deleted Ratio: IC50 ratio HAP1 MTAP-intact / HAP1 MTAP-deleted
Procedure, shortened: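 Symmetric dimethylarginine (SDMA) levels were measured by in-cell western in MTAP-null HAP1 cells, one half of an MTAP-isogenic pair whose partner line expresses endogenous MTAP. Compound potency is reported as IC50.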

[6] = ratio between the Ki in the presence of SAM and the Ki in the presence of MTA
[7] = ratio between Ki in the presence of SAM and Ki in the presence of MTA

T1 sequence (O14744 whole entry): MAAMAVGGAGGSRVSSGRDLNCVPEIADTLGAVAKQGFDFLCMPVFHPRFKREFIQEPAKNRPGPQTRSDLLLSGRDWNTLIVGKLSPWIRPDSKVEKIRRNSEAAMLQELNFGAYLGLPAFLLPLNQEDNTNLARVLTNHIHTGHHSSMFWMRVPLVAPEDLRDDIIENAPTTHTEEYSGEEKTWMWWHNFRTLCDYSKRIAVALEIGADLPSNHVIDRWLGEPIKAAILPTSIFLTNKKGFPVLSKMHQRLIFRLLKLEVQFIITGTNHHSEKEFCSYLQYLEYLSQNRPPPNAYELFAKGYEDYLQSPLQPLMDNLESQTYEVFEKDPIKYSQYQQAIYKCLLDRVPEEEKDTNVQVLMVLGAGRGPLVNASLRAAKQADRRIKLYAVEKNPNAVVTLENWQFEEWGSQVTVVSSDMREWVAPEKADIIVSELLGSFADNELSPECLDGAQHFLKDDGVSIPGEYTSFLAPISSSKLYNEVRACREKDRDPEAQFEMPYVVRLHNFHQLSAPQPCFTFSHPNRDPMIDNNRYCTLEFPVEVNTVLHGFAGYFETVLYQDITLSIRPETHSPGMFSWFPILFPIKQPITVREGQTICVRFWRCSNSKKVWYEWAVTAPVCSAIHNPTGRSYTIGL
T1 sequence (Q9BQA1 whole entry partner): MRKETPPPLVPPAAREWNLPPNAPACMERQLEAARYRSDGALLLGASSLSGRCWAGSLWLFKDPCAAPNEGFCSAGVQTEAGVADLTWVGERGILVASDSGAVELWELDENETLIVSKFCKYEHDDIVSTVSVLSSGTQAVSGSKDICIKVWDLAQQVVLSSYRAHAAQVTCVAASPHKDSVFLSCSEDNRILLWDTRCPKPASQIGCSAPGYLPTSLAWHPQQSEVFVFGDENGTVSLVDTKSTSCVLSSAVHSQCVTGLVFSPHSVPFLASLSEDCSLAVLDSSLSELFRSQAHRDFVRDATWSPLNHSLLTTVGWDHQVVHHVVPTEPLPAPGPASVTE

For CC(=O)N1CCN(c2nc(NC3COC3)cc(C(=O)NC[C@H](O)CN3CCc4c(ccc(OCc5ocnc5C)c4C)C3)n2)CC1 [Compound 499, 2-(4-acetylpiperazin-1-yl)-N-[(2S)-2-hydroxy-3-{5-methyl-6-[(4-methyl-1,3-oxazol-5-yl)methoxy]-1,2,3,4-tetrahydroisoquinolin-2-yl}propyl]-6-[(oxetan-3-yl)amino]pyrimidine-4-carboxamide], the IC50 [1] was 500 to 5000 nM, the IC50 [2] was no less than 10000 nM and the IC50 [3] was no less than 5000 nM. The IC50 [4] was 50 to 500 nM, the “SAM/MTA Ratio” value [4, 6] was “A (a Ki ratio greater than or equal to 10 fold between the Ki in the presence of SAM and the Ki in the presence of MTA)” and the IC50 [5] was no less than 10000 nM. For the same molecule, the “MTAP Intact/Deleted Ratio” value [5] was “C* (an IC50 ratio of less than 3 fold between the IC50 in the HAP1 MTAP-intact cell line and the HAP1 MTAP-deleted cell line)”.

CC(C)(C)c1cc(C(=O)NC[C@H](O)CN2CCc3cc(OCc4cnco4)ccc3C2)cc(NC2CCC2)n1 [Compound 308, (S)-2-(tert-butyl)-6-(cyclobutylamino)-N-(2-hydroxy-3-(6-(oxazol-5-ylmethoxy)-3,4-dihydroisoquinolin-2(1H)-yl)propyl)isonicotinamide] was tested, and the IC50 [1] was 500 to 5000 nM, the IC50 [2] was no less than 10000 nM and the IC50 ([3]; read-out: No Co-factor IC50) was no less than 5000 nM. For the same molecule, the IC50 [4] was 500 to 5000 nM, the “SAM/MTA Ratio” value [4, 7] was “A (a Ki ratio greater than or equal to 10 fold between the Ki in the presence of SAM and the Ki in the presence of MTA)” and the IC50 [5] was no less than 10000 nM. The “MTAP Intact/Deleted Ratio” value [5] was “C* (an IC50 ratio of less than 3 fold between the IC50 in the HAP1 MTAP-intact cell line and the HAP1 MTAP-deleted cell line)”.

Cc1cc(OCc2cnco2)cc2c1CN(C[C@@H](O)CNC(=O)c1ccnc(NC3CCC3)c1)CC2 [Compound 260, 2-(cyclobutylamino)-N-[(2S)-2-hydroxy-3-[8-methyl-6-(oxazol-5-ylmethoxy)-3,4-dihydro-1H-isoquinolin-2-yl]propyl]pyridine-4-carboxamide] showed an IC50 [1] of 500 to 5000 nM, an IC50 [2] of 1000 to 10000 nM and an IC50 ([3]; read-out: No Co-factor IC50) of no less than 5000 nM. The IC50 [4] was 500 to 5000 nM, the “SAM/MTA Ratio” value [4, 7] was “A (a Ki ratio greater than or equal to 10 fold between the Ki in the presence of SAM and the Ki in the presence of MTA)” and the IC50 [5] was 1000 to 10000 nM. For the same molecule, the “MTAP Intact/Deleted Ratio” value [5] was “C* (an IC50 ratio of less than 3 fold between the IC50 in the HAP1 MTAP-intact cell line and the HAP1 MTAP-deleted cell line)”.

Molecule CC(C)C(=O)N1CCN(c2nc(NC3COC3)cc(C(=O)NC[C@H](O)CN3CCc4c(ccc(OCc5cnco5)c4Cl)C3)n2)CC1 [Compound 323, (S)—N-(3-(5-chloro-6-(oxazol-5-ylmethoxy)-3N-dihydroisoquinolin-2(1H)-yl)-2-hydroxypropyl)-2-(4-isobutyrylpiperazin-1-yl)-6-(oxetan-3-ylamino)pyrimidine-4-carboxamide] has an IC50 [1] of 50 to 500 nM, an IC50 [2] of no less than 10000 nM and an IC50 ([3]; read-out: No Co-factor IC50) of 500 to 5000 nM. For the same molecule, the IC50 [4] was 50 to 500 nM, the “SAM/MTA Ratio” value [4, 7] was “A (a Ki ratio greater than or equal to 10 fold between the Ki in the presence of SAM and the Ki in the presence of MTA)” and the IC50 [5] was 1000 to 10000 nM. The “MTAP Intact/Deleted Ratio” value [5] was “B* (an IC50 ratio greater than or equal to 3 fold but lower than 10 fold between the IC50 in the HAP1 MTAP-intact cell line and the HAP1 MTAP-deleted cell line)”.

CC(=O)N1CCC(Nc2cc(C(=O)NC[C@H](O)CN3CCc4cc(OCc5ocnc5C)ccc4C3)cc(N3CCCCC3)n2)CC1 [Compound 587, 2-[(1-acetylpiperidin-4-yl)amino]-N-[(2S)-2-hydroxy-3-{6-[(4-methyl-1,3-oxazol-5-yl)methoxy]-1,2,3,4-tetrahydroisoquinolin-2-yl}propyl]-6-(piperidin-1-yl)pyridine-4-carboxamide] gave an IC50 [1] of 50 to 500 nM, an IC50 [2] of 1000 to 10000 nM and an IC50 [3] of 500 to 5000 nM. For the same molecule, the IC50 [4] was 50 to 500 nM, the “SAM/MTA Ratio” value [4, 6] was “A (a Ki ratio greater than or equal to 10 fold between the Ki in the presence of SAM and the Ki in the presence of MTA)” and the IC50 [5] was less than 1000 nM. For the same molecule, the “MTAP Intact/Deleted Ratio” value [5] was “A* (an IC50 ratio greater than or equal to 10 fold between the IC50 in the HAP1 MTAP-intact cell line and the HAP1 MTAP-deleted cell line)”.

Molecule CCC(=O)N1CC(Nc2cc(C(=O)NC[C@H](O)CN3CCc4c(ccc(OCc5cnco5)c4Cl)C3)ccn2)C1 [Compound 426, (S)—N-(3-(5-chloro-6-(oxazol-5-ylmethoxy)-3,4-dihydroisoquinolin-2(1H)-yl)-2-hydroxypropyl)-2-((1-propionylazetidin-3-yl)amino)isonicotinamide] has an IC50 [1] of 50 to 500 nM, an IC50 [2] of no less than 10000 nM and an IC50 [3] of 500 to 5000 nM. The IC50 [4] was 50 to 500 nM, the “SAM/MTA Ratio” value [4, 6] was “A (a Ki ratio greater than or equal to 10 fold between the Ki in the presence of SAM and the Ki in the presence of MTA)” and the IC50 [5] was no less than 10000 nM. The “MTAP Intact/Deleted Ratio” value [5] was “C* (an IC50 ratio of less than 3 fold between the IC50 in the HAP1 MTAP-intact cell line and the HAP1 MTAP-deleted cell line)”.

CC(=O)N1CCC(Nc2cc(C(=O)NC[C@H](O)CN3CCc4nc(OCc5ocnc5C)ccc4C3)ncn2)CC1 [Compound 491, 6-[(1-acetyl-4-piperidyl)amino]-N-[(2S)-2-hydroxy-3-[2-[(4-methyloxazol-5-yl)methoxy]-7,8-dihydro-5H-1,6-naphthyridin-6-yl]propyl]pyrimidine-4-carboxamide] showed an IC50 [1] of 50 to 500 nM, an IC50 [2] of no less than 10000 nM and an IC50 [3] of no less than 5000 nM. The IC50 [4] was 50 to 500 nM, the “SAM/MTA Ratio” value [4, 6] was “A (a Ki ratio greater than or equal to 10 fold between the Ki in the presence of SAM and the Ki in the presence of MTA)” and the IC50 [5] was 1000 to 10000 nM. For the same molecule, the “MTAP Intact/Deleted Ratio” value [5] was “C* (an IC50 ratio of less than 3 fold between the IC50 in the HAP1 MTAP-intact cell line and the HAP1 MTAP-deleted cell line)”.

Molecule CC(C)N1CCN(c2cc(C(=O)NC[C@H](O)CN3CCc4cc(OCc5cnco5)ccc4C3)cc(NC3CCC3)n2)CC1 [Compound 462, (S)-2-(cyclobutylamino)-N-(2-hydroxy-3-(6-(oxazol-5-ylmethoxy)-3,4-dihydroisoquinolin-2(1H)-yl)propyl)-6-(4-isopropylpiperazin-1-yl)isonicotinamide] has an IC50 [1] of 50 to 500 nM, an IC50 [2] of no less than 10000 nM and an IC50 [3] of 500 to 5000 nM. The IC50 [4] was 50 to 500 nM, the “SAM/MTA Ratio” value [4, 6] was “A (a Ki ratio greater than or equal to 10 fold between the Ki in the presence of SAM and the Ki in the presence of MTA)” and the IC50 [5] was no less than 10000 nM. For the same molecule, the “MTAP Intact/Deleted Ratio” value [5] was “C* (an IC50 ratio of less than 3 fold between the IC50 in the HAP1 MTAP-intact cell line and the HAP1 MTAP-deleted cell line)”.

Cc1ncoc1COc1ccc2c(c1)CCN(C[C@@H](O)CNC(=O)c1cc(NC3COC3)nc(N3CCN(C(=O)C(C)C)CC3)n1)C2 [Compound 454, N-[(2S)-2-hydroxy-3-{6-[(4-methyl-1,3-oxazol-5-yl)methoxy]-1,2,3,4-tetrahydroisoquinolin-2-yl}propyl]-2-[4-(2-methylpropanoyl)piperazin-1-yl]-6-[(oxetan-3-yl)amino]pyrimidine-4-carboxamide] was tested, and the IC50 [1] was 50 to 500 nM, the IC50 [2] was 1000 to 10000 nM and the IC50 [3] was 500 to 5000 nM. The IC50 [4] was 50 to 500 nM, the “SAM/MTA Ratio” value [4, 6] was “A (a Ki ratio greater than or equal to 10 fold between the Ki in the presence of SAM and the Ki in the presence of MTA)” and the IC50 [5] was less than 1000 nM. For the same molecule, the “MTAP Intact/Deleted Ratio” value [5] was “B* (an IC50 ratio greater than or equal to 3 fold but lower than 10 fold between the IC50 in the HAP1 MTAP-intact cell line and the HAP1 MTAP-deleted cell line)”.
